In patent publication EP4653006A1, “NOVEL MIXTURE OF ACTIVE INGREDIENTS, COMPOSITIONS CONTAINING THEM, AND THEIR USE AGAINST ALLERGY AND/OR INFLAMMATION” (Global Pharmacies Partner S.R.L. in Forma Abbreviata G.P.P. …, priority 2024, dated 2025):

Assays:
TNFα = TNFα release by ELISA in sensitized/stimulated RBL-2H3 cells; format: cell-based, rat; details: positive control 20 µM
Method: The anti-inflammatory action was instead evaluated, always in the same cell line, by measuring the ability of the sample to inhibit the release of tumor necrosis factor alpha (TNFα).
(§1) The RBL-2H3 cells were first sensitized and then stimulated to induce degranulation.
The test was conducted on RBL-2H3 cells grown in DMEM (Dulbecco's modified Eagle medium) containing 10% fetal bovine serum (FBS) and 1% antibiotics (penicillin and streptomycin) and incubated in standard culture conditions (37°C, 5% CO2). RBL-2H3 cells are widely used in allergy and immunology research, as, like mast cells, they express FCεRI and, following cross-linking between IgE bound to FCεRI and allergens, they undergo degranulation. In this way, therefore, they simulate the behavior of mast cells and basophils in their response to an immunological stimulus.
The supernatant recovered from the cells was also used for the dosage of TNFα performed by ELISA (Enzyme-Linked Immunosorbent Assay), a very widespread biochemical technique used for the quantification of proteins and peptides. In an ELISA assay, a specific […] for TNFα is immobilized on a solid surface (the bottom of a well) to which the assay medium is added. Detection is done by means of a biotinylated secondary antibody and then reacted with streptavidin-HRP. The colorimetric reaction is proportional to the amount of TNFα present. The results are read by spectrophotometer at 450 nm. The values obtained were then interpolated into a standard curve of TNFα.
The absorbance (optical density, OD) measured at 450 nm is directly proportional to the amount of TNFα produced by the tissues. To calculate the concentrations of TNFα, the OD values obtained were interpolated into a standard curve of TNFα. The percentages were calculated with respect to the non-sensitized and non-stimulated cells (NS). The values are expressed as means ± standard deviation. Statistical processing of the data was performed by Student's t-test. Values of p<0.05 are considered significant. […]

RBL-2H3 cells = assay: degranulation (β-hexosaminidase release) in sensitized/stimulated RBL-2H3 cells; format: cell-based, rat; details: positive control 20 µM
Method: The antiallergic activity of the tested sample of mixture M was evaluated by measuring its ability to prevent degranulation processes in a rat leukemia cell line (RBL-2H3), widely used as a model simulating mast cells in immunological and allergological studies.
as §1
The test was conducted on RBL-2H3 cells grown in DMEM (Dulbecco's modified Eagle medium) containing 10% fetal bovine serum (FBS) and 1% antibiotics (penicillin and streptomycin) and incubated in standard culture conditions (37°C, 5% CO2). […]
The medium was then recovered and separated from the cells and incubated with 4-nitrophenyl-N-acetyl-β-D-glucosamide. The reaction was stopped with carbonate buffer and the absorbance was measured by spectrophotometric reading at 405 nm. Degranulation was calculated as the percentage of β-hexosaminidase relative to non-sensitized (NS) cells as follows: Degranulation (%) = (ODX)/(ODNS)⋅100 [formula]
The measured absorbance (optical density, OD) is directly proportional to the amount of β-hexosaminidase present in the analyzed fluids, which in turn correlates positively with the levels of histamine released during the degranulation phase and is therefore an indicative marker of the degranulation process. […] The values are expressed as means ± standard deviation. […]

In the case of `C=C1CC[C@H]2C(=C)CC[C@H]3C(=C)C(=O)O[C@@H]3[C@@H]12` [PC, Dehydrocostolactone], the “protection (% vs NC), reduction in TNFα release” value (TNFα) is reported as 19.5%, the “TNFα (% vs NS)” value (TNFα; NC = 227.8) is reported as 183.4% and the “TNFα” value (TNFα; NC = 248.8) is reported as 200.3 pg/mL. For the same compound, the “protection (% vs NC), reduction in degranulation” value (RBL-2H3 cells) was 80.8% and the “β-hexosaminidase (% vs NS)” value (RBL-2H3 cells; anti-DNP IgE / DNP-HSA, NC = 1,274.6) was 244.8%.
